The source of these data is patent US9751846B2, “Method for producing 1,4-benzoxazine compound” (MITSUBISHI TANABE PHARMA CORPORATION, priority 2012, dated 2017).

Series [1] is described as follows: stability of the crystal form (transition by heating, thermostability). Type of series: physicochemical. The settings on record: for stability of the crystal: general statement.
A short description of series [2]: hygroscopicity of the crystal form. Type of series: physicochemical.
Series [3] is described as follows: stability of the crystal in a formulation. Type of series: physicochemical.
Series [4] in a line: mutagenicity (AMES test). Type of series: cell-based.

Entries after “also recorded” stand apart in the source; their conditions may differ.

`CC1(C)Oc2cc(NS(C)(=O)=O)ccc2N(c2ccc(F)cc2)C1=O` [Form A crystal, N-[4-(4-fluorophenyl)-2,2-dimethyl-3-oxo-3,4-dihydro-2H-1,4-benzoxazin-7-yl]methanesulfonamide]: the “stability of the crystal” value in series [1] is listed as “highly stable”. For the same molecule, the “transition to amorphous state or other crystal form by heating” value in series [1] (heating) is “hardly makes a transition to other crystal form by heating; also recorded: does not transform to an amorphous state or other crystal form”. Also, the hygroscopicity entry in series [2] is listed as “low hygroscopicity; also recorded: non-hygroscopic”. Moreover, the “stability in a formulation” value in series [3] was “high stability in a formulation; also recorded: highly stable in a formulation”.

On to `CC1(C)Oc2cc(NS(C)(=O)=O)ccc2N(c2ccc(F)cc2)C1=O` [Form B crystal, N-[4-(4-fluorophenyl)-2,2-dimethyl-3-oxo-3,4-dihydro-2H-1,4-benzoxazin-7-yl]methanesulfonamide], for which the thermostability entry in series [1] (as compared to the Form D crystal of Patent Literature 1) is given as “higher thermostability”. Further, the “stability of the crystal” value in series [1] is on record as “highly stable”. Also, the hygroscopicity entry in series [2] is “low hygroscopicity”.

Consider `CC1(C)Oc2cc(NS(C)(=O)=O)ccc2N(c2ccc(F)cc2)C1=O` [Form C crystal, N-[4-(4-fluorophenyl)-2,2-dimethyl-3-oxo-3,4-dihydro-2H-1,4-benzoxazin-7-yl]methanesulfonamide], for which the “stability of the crystal” value in series [1] is “highly stable”.

As for `CC1(C)Oc2cc(N(S(C)(=O)=O)S(C)(=O)=O)ccc2N(c2ccc(F)cc2)C1=O` [compound [c], N-[4-(4-fluorophenyl)-2,2-dimethyl-3-oxo-3,4-dihydro-2H-1,4-benzoxazin-7-yl]-N-(methylsulfonyl)methanesulfonamide], the mutagenicity result in series [4] (test not named at this place, synthetic intermediate of the new route) is given as “lower mutagenicity”.

With `CC1(C)Oc2cc(N)ccc2N(c2ccc(F)cc2)C1=O` [intermediate (2), 7-amino-4-(4-fluorophenyl)-2,2-dimethyl-2H-1,4-benzoxazin-3(4H)-one], the “mutagenicity by the AMES test” value in series [4] (synthetic intermediate of the Patent Literature 1 route) is listed as “strong mutagenicity”.
